Reference: patent US20240140933A1, “OXOINDOLINE COMPOUND FOR THE TREATMENT OF INFLAMMATORY DISEASES OR CANCER” (Hoffmann-La Roche Inc., priority 2021, published 2024)

Biological target: PDHK1 (Homo sapiens (Human), UniProt Q15118)
Experiment: PDHK1 enzymatic assay (AlphaScreen, phosphorylation of PDHE1 S293)
Type: biochemical
Settings: 1 nM PDHK1, 25 nM PDHE1, 20 μM ATP, 30° C. for 45 minutes; for IC50: read-out: Enzymatic IC50 against PDHK1 (converted)
Text: Pyruvate dehydrogenase complex (PDHc) is an enzyme that catalyzes the reaction of pyruvate and a lipoamide to give the acetylated dihydrolipoamide and carbon dioxide. PDHc has three subunits E1, E2 and E3. E1 has 3 serine phosphorylation sites S293, S232, S300. If E1 was phosphorylated, PDH will be inactivated. PDHK can phosphorylate PDH protein (also named PDHE1) in PDH complex (PDC) to inactivate it.

Chain of PDHK1 (Q15118 29-436): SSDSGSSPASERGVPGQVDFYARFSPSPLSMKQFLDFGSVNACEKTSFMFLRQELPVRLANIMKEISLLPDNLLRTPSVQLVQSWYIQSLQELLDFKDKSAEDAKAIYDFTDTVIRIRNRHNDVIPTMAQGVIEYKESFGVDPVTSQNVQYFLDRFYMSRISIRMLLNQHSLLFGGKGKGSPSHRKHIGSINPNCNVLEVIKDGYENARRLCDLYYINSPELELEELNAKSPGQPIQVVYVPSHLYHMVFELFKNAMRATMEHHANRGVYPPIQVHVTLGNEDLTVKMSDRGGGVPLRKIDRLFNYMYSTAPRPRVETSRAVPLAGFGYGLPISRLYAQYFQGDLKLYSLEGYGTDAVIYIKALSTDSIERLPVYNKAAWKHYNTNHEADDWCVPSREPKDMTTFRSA

Structure (SMILES) | Enzymatic IC50 against PDHK1 | IC50
CCNc1cc(F)cc2c1NC(=O)C2(C)N1CCC[C@@H](Nc2ccc(OS(=O)(=O)F)cc2)C1 (stereo partly drawn) [Example 32, 7-(ethylamino)-5-fluoro-3-methyl-2-oxo-3-[(3R)-3-(4-fluorosulfonyloxyanilino)-1-piperidyl]indoline] | 0.135 µg/mL | –
CCNc1cc(F)cc2c1NC(=O)C2(C)N1CCC[C@@H](Nc2ccc(OS(=O)(=O)F)nc2)C1 (stereo partly drawn) [Example 33, 7-(ethylamino)-5-fluoro-3-methyl-2-oxo-3-[(3R)-3-[(6-fluorosulfonyloxy-3-pyridyl)amino]-1-piperidyl]indoline] | 0.068 µg/mL | –
C=CS(=O)(=O)c1ccc(N[C@@H]2CCCN(C3(C)C(=O)Nc4c(NCC)cc(F)cc43)C2)cc1 (stereo partly drawn) [Example 34, 7-(ethylamino)-5-fluoro-3-methyl-3-[(3R)-3-(4-vinylsulfonylanilino)-1-piperidyl]indolin-2-one] | 0.032 µg/mL | –
CCNc1cc(F)cc2c1NC(=O)C2(C)N1CCC[C@@H](NC(=O)c2cc(F)c(O)c(F)c2)C1 (stereo partly drawn) [Example 35, N-[(3R)-1-[7-(ethylamino)-5-fluoro-3-methyl-2-oxo-indolin-3-yl]-3-piperidyl]-3,5-difluoro-4-hydroxy-benzamide] | 0.030 µg/mL | –
CCNc1cc(F)cc2c1NC(=O)C2(C)N1CCC[C@@H](NC(=O)C2CCS(=O)(=O)CC2)C1 (stereo partly drawn) [Example 36, N-[(3R)-1-[7-(ethylamino)-5-fluoro-3-methyl-2-oxo-indolin-3-yl]-3-piperidyl]-1,1-dioxo-thiane-4-carboxamide] | 0.047 µg/mL | –
CCNc1cc(F)cc2c1NC(=O)C2(C)N1CCC[C@@H](NC(=O)C2CCN(C#N)CC2)C1 (stereo partly drawn) [Example 38, 1-cyano-N-[(3R)-1-[7-(ethylamino)-5-fluoro-3-methyl-2-oxo-indolin-3-yl]-3-piperidyl]piperidine-4-carboxamide] | 0.026 µg/mL | –
CCNc1cc(F)cc2c1NC(=O)C2(C)N1CCC[C@@H](NC(=O)C2CC3(C2)CN(C(=O)CCl)C3)C1 (stereo partly drawn) [Example 40, 2-(2-chloroacetyl)-N-[(3R)-1-[7-(ethylamino)-5-fluoro-3-methyl-2-oxo-indolin-3-yl]-3-piperidyl]-2-azaspiro[3.3]heptane-6-carboxamide] | 0.017 µg/mL | –
C=CC(=O)N1CC2(CC(C(=O)N[C@@H]3CCCN(C4(C)C(=O)Nc5c(NCC)cc(F)cc54)C3)C2)C1 (stereo partly drawn) [Example 41, N-[(3R)-1-[7-(ethylamino)-5-fluoro-3-methyl-2-oxo-indolin-3-yl]-3-piperidyl]-2-prop-2-enoyl-2-azaspiro[3.3]heptane-6-carboxamide] | 0.032 µg/mL | –
CCNc1cc(F)cc2c1NC(=O)C2(C)N1CCC[C@@H](NC(=O)c2cccc(S(=O)(=O)F)c2)C1 (stereo partly drawn) [Example 42, 3-[[(3R)-1-[7-(ethylamino)-5-fluoro-3-methyl-2-oxo-indolin-3-yl]-3-piperidyl]carbamoyl]benzenesulfonyl fluoride] | 0.020 µg/mL | –
CCNc1cc(F)cc2c1NC(=O)C2(C)N1CCC[C@@H](NC(=O)c2ccc(S(=O)(=O)F)cc2)C1 (stereo partly drawn) [Example 43, 4-[[(3R)-1-[7-(ethylamino)-5-fluoro-3-methyl-2-oxo-indolin-3-yl]-3-piperidyl]carbamoyl]benzenesulfonyl fluoride] | 0.016 µg/mL | –
CCNc1cc(F)cc2c1NC(=O)C2(C)N1CCC[C@@H](NC(=O)c2cccc(OS(=O)(=O)F)c2)C1 (stereo partly drawn) [Example 44, 7-(ethylamino)-5-fluoro-3-[(3R)-3-[(3-fluorosulfonyloxybenzoyl)amino]-1-piperidyl]-3-methyl-2-oxo-indoline] | 0.022 µg/mL | –
CCNc1cc(F)cc2c1NC(=O)C2(C)N1C[C@H](F)C[C@@H](Nc2ccc(C#N)nc2)C1 (stereo partly drawn) [Example 45, 5-[[(3R,5R)-1-[7-(ethylamino)-5-fluoro-3-methyl-2-oxo-indolin-3-yl]-5-fluoro-3-piperidyl]amino]pyridine-2-carbonitrile] | 0.011 µg/mL | –
CCNc1cc(F)cc2c1NC(=O)C2(C)N1C[C@@H](F)C[C@@H](Nc2ccc(C#N)nc2)C1 (stereo partly drawn) [Example 46, 5-[[(3R,5S)-1-[7-(ethylamino)-5-fluoro-3-methyl-2-oxo-indolin-3-yl]-5-fluoro-3-piperidyl]amino]pyridine-2-carbonitrile] | 0.012 µg/mL | –
CCNc1cc(F)cc2c1NC(=O)C2(C)N1C[C@@H](C)C[C@@H](Nc2ccc(C#N)nc2)C1 (stereo partly drawn) [Example 47, 5-[[(3R,5S)-1-[7-(ethylamino)-5-fluoro-3-methyl-2-oxo-indolin-3-yl]-5-methyl-3-piperidyl]amino]pyridine-2-carbonitrile] | 0.019 µg/mL | –
CCNc1cc(F)cc2c1NC(=O)C2(C)N1CC[C@H](F)[C@@H](Nc2ccc(C#N)nc2)C1 (stereo partly drawn) [Example 48, 5-[[(3S,4S)-1-[7-(ethylamino)-5-fluoro-3-methyl-2-oxo-indolin-3-yl]-4-fluoro-3-piperidyl]amino]pyridine-2-carbonitrile] | 0.025 µg/mL | –
CCNc1cc(F)cc2c1NC(=O)C2(CC)N1CC[C@H](F)[C@@H](Nc2ccc(C#N)nc2)C1 (stereo partly drawn) [Example 49, 5-[[(3S,4S)-1-[3-ethyl-7-(ethylamino)-5-fluoro-2-oxo-indolin-3-yl]-4-fluoro-3-piperidyl]amino]pyridine-2-carbonitrile] | 0.007 µg/mL | –
CCNc1cc(F)cc2c1NC(=O)C2(C)N1CC[C@H](O)[C@@H](Nc2ccc(C#N)nc2)C1 (stereo partly drawn) [Example 50, 5-[[(3S,4S)-1-[7-(ethylamino)-5-fluoro-3-methyl-2-oxo-indolin-3-yl]-4-hydroxy-3-piperidyl]amino]pyridine-2-carbonitrile] | 0.014 µg/mL | –
CCNc1cc(F)cc2c1NC(=O)C2(C)N1CC[C@@H](O)[C@@H](Nc2ccc(C#N)nc2)C1 (stereo partly drawn) [Example 51, 5-[[(3S,4R)-1-[7-(ethylamino)-5-fluoro-3-methyl-2-oxo-indolin-3-yl]-4-hydroxy-3-piperidyl]amino]pyridine-2-carbonitrile] | 0.017 µg/mL | –
CCNc1cc(F)cc2c1NC(=O)C2(C)N1CC[C@H](c2ccccc2)[C@@H](NC(C)=O)C1 (stereo partly drawn) [Example 52, N-[(3R,4R)-1-[7-(ethylamino)-5-fluoro-3-methyl-2-oxo-indolin-3-yl]-4-phenyl-3-piperidyl]acetamide] | 0.020 µg/mL | –
C=CS(=O)(=O)N[C@H]1CN(C2(C)C(=O)Nc3c(NCC)cc(F)cc32)CC[C@@H]1c1ccccc1 (stereo partly drawn) [Example 53, N-[(3R,4R)-1-[7-(ethylamino)-5-fluoro-3-methyl-2-oxo-indolin-3-yl]-4-phenyl-3-piperidyl]ethenesulfonamide] | 0.015 µg/mL | –
CCNc1cc(F)cc2c1NC(=O)C2(C)N1CC[C@H](c2ccccc2)[C@@H](NC(=O)C2CN(C#N)C2)C1 (stereo partly drawn) [Example 54, 1-cyano-N-[(3R,4R)-1-[7-(ethylamino)-5-fluoro-3-methyl-2-oxo-indolin-3-yl]-4-phenyl-3-piperidyl]azetidine-3-carboxamide] | 0.009 µg/mL | –
CCNc1cc(F)cc2c1NC(=O)C2(C)N1CC[C@H](c2ccccc2)[C@@H](Nc2ccc(C#N)nc2)C1 (stereo partly drawn) [Example 55, 5-[[(3R,4R)-1-[7-(ethylamino)-5-fluoro-3-methyl-2-oxo-indolin-3-yl]-4-phenyl-3-piperidyl]amino]pyridine-2-carbonitrile] | 0.037 µg/mL | –
CCNc1cc(F)cc2c1NC(=O)C2(C)N1CC[C@H](c2ccccc2Oc2ccc(C(=O)O)cc2)[C@@H](NC(C)=O)C1 (stereo partly drawn) [Example 56, 4-[2-[(3R,4R)-3-acetamido-1-[7-(ethylamino)-5-fluoro-3-methyl-2-oxo-indolin-3-yl]-4-piperidyl]phenoxy]benzoic acid] | 0.005 µg/mL | –
CCNc1cc(F)cc2c1NC(=O)C2(C)N1CC[C@H](c2ccccc2Oc2ccc(C(N)=O)cc2)[C@@H](NC(C)=O)C1 (stereo partly drawn) [Example 57, 4-[2-[(3R,4R)-3-acetamido-1-[7-(ethylamino)-5-fluoro-3-methyl-2-oxo-indolin-3-yl]-4-piperidyl]phenoxy]benzamide] | 0.019 µg/mL | –
CCNc1cc(F)cc2c1NC(=O)C2(C)N1CC[C@H](c2ccccc2Oc2ccc(C#N)cc2)[C@@H](NC(C)=O)C1 (stereo partly drawn) [Example 58, N-[(3R,4R)-4-[2-(4-cyanophenoxy)phenyl]-1-[7-(ethylamino)-5-fluoro-3-methyl-2-oxo-indolin-3-yl]-3-piperidyl]acetamide] | 0.03 µg/mL | –
CCNc1cc(F)cc2c1NC(=O)[C@@]2(C)N1CC[C@@H](c2ccccc2)[C@@H](C(N)=O)C1 [Example 59B, (3R,4R)-1-[(3S)-7-(ethylamino)-5-fluoro-3-methyl-2-oxo-indolin-3-yl]-4-phenyl-piperidine-3-carboxamide] | – | 17.1 nM
CCNc1cc(F)cc2c1NC(=O)[C@@]2(C)N1CC[C@@H](c2ccccc2)[C@@H](C(=O)NC)C1 [Example 60B, (3R,4R)-1-[(3S)-7-(ethylamino)-5-fluoro-3-methyl-2-oxo-indolin-3-yl]-N-methyl-4-phenyl-piperidine-3-carboxamide] | – | 21.2 nM
CCNc1cc(F)cc2c1NC(=O)[C@@]2(C)N1CC[C@@H](c2ccccc2)[C@@H](C(=O)Nc2ccccc2)C1 [Example 61B, (3R,4R)-1-[(3S)-7-(ethylamino)-5-fluoro-3-methyl-2-oxo-indolin-3-yl]-N,4-diphenyl-piperidine-3-carboxamide] | – | 47.3 nM
CCNc1cc(F)cc2c1NC(=O)[C@@]2(C)N1CC[C@@H](c2ccccc2)[C@@H](C(=O)NCc2ccccc2)C1 [Example 62B, (3R,4R)-N-benzyl-1-[(3S)-7-(ethylamino)-5-fluoro-3-methyl-2-oxo-indolin-3-yl]-4-phenyl-piperidine-3-carboxamide] | – | 75.9 nM
